Structures can show the parent of a compound that is named as a salt.
Legend:
[1] = test system: indomethacin-induced gastric antral ulceration; assay: Inhibition of indomethacin-induced gastric antral ulceration in the rat (modified Satoh et al.); format: in vivo; conditions: for potency compared with other test compounds (in words): ranitidine bismuth citrate versus ranitidine hydrochloride and De-Nol, po; for potency compared with other test compounds (in words) / inhibition of indomethacin-induced lesions (in words): rats; for inhibition of indomethacin-induced lesions (in words): ranitidine bismuth citrate 1 to 100 mg/kg po
Description: The ability of ranitidine bismuth citrate to prevent indomethacin-induced gastric antral ulceration was compared with that of ranitidine hydrochloride and De-Nol™. Female rats, which had been fasted for 24 hours and then re-fed, received ranitidine bismuth citrate (1 to 100mg/kg), ranitidine hydrochloride (10 to 100mg/kg) or De-Nol™ (3 to 100mg/kg) by oral gavage. Ranitidine bismuth citrate was administered as a suspension and the other test compounds as solutions. Thirty minutes after dosing with the test compound, animals received indomethacin (60mg/kg sc) as an ulcerogenic stimulus and after a further 6 hours the animals were killed and the antral region assessed macroscopically for damage.

[2] = test system: mucosal lesions of the gastrointestinal tract caused by non-steroidal anti-inflammatory drugs; assay: Tests in animals and humans: mucosal lesions of the gastrointestinal tract caused by non-steroidal anti-inflammatory drugs; format: in vivo
[3] = test system: aspirin-induced injury to the gastric mucosa; conditions: human clinical study, N. Hudson et al., Gut 1992, 33 supplement, s47; cited from earlier work
[4] = listed as Ranitidine bismuth citrate
[5] = listed as ranitidine bismuth citrate

Row | Molecule | ED50 ([1]; Rattus norvegicus, female rats, oral gavage 30 min before indomethacin 60 mg/kg sc, antral damage assessed after a further 6 hours) [mg/kg] | potency compared with other test compounds (in words) [1] | ED50 for inhibition of indomethacin-induced antral ulceration ([1]; female rats, oral gavage 30 min before indomethacin 60 mg/kg sc, antral damage assessed after a further 6 hours) [mg/kg p.o.] | inhibition of indomethacin-induced lesions (in words) [1, 4] | inhibition of indomethacin-induced lesions (in words) [1, 5] | potency compared with other test compounds (in words) [1, 4] | potency compared with other test compounds (in words) [1, 5] | reduction of NSAID-caused mucosal lesions of the gastrointestinal tract (in words) [2] | protection from aspirin-induced injury to the gastric mucosa (in words) [3]
1 | CNC(=C[N+](=O)[O-])NCCSCc1ccc(CN(C)C)o1 [Ranitidine Hydrochloride, ranitidine hydrochloride, reference compound] | 23.4 | markedly less potent |  |  |  |  |  |  | 
2 | N-[2-[[[5-[(dimethylamino)methyl]-2-furanyl]methyl]thio]ethyl]-N'-methyl-2-nitro-1,1-ethenediamine 2-hydroxy-1,2,3-propanetricarboxylate bismuth (3^+) complex [Ranitidine Bismuth Citrate] |  |  | 4.5 | dose-related inhibition of indomethacin-induced lesions | prevent indomethacin induced gastric antral ulceration | relatively potent | markedly more potent than both ranitidine hydrochloride and tripotassium dicitrato bismuthate as DeNol™ | significantly reduced | substantial protection from aspirin-induced injury to the gastric mucosa

Reference: patent US5466436A, “Medicaments for treating inflammatory conditions or for analgesia” (Glaxo Group Limited, priority 1991, dated 1995)
